As for `Br.Cc1cc(Oc2ccc3cc(C(=O)N4CCN(Cc5ccc(OC(F)F)cc5)CC4)n(C)c3c2)ncc1N(C)S(=O)(=O)c1ccc(Cl)c(Cl)c1` [Example 311, 3,4-Dichloro-N-(6-{2-[4-(4-difluoromethoxybenzyl)piperazine-1-carbonyl]-1-methyl-1H-indol-6-yloxy}-4-methylpyridin-3-yl)-N-methylbenzenesulfonamide hydrobromide], the melting point (usually the temperature of the solid-liquid transition) fell in the range of 213.5 to 215.3 °C.

The compound `Cn1c(C(=O)N2CCN(Cc3ccccn3)CC2)cc2cc(Oc3ncc(NC(=O)c4ccc(Cl)c(Cl)c4)cn3)ccc21` [Example 385, 3,4-Dichloro-N-{2-[1-methyl-2-(4-pyridin-2-ylmethylpiperazine-1-carbonyl)-1H-indol-5-yloxy]pyrimidin-5-yl}benzamide] showed a melting point of 161 to 163 °C.

`Br.CN(C(=O)c1ccc(C(F)(F)F)cc1)c1ccc(Oc2cccc3cc(C(=O)N4CCN(Cc5ccc(C#N)cc5)CC4)n(C)c23)nc1` [Example 324, N-(6-{2-[4-(4-Cyanobenzyl)piperazine-1-carbonyl]-1-methyl-1H-indol-7-yloxy}pyridin-3-yl)-N-methyl-4-trifluoromethylbenzamide hydrobromide]: the melting point lay in the range of 200 to 201 °C.

As for `Cl.Cn1c(C(=O)N2CCN(Cc3ccc(OC(CF)CF)cc3)CC2)cc2ccc(Oc3ccc(NC(=O)c4ccc(C(F)(F)F)cc4F)cn3)cc21`, the melting point lay within 267.3 to 267.7 °C.

On to `Br.CCN(C(=O)Nc1ccc(C(F)(F)F)cc1)c1ccc(Oc2ccc3c(c2)cc(C(=O)N2CCN(Cc4ccccc4)CC2)n3C)nc1` [Example 580, 1-{6-[2-(4-Benzylpiperazine-1-carbonyl)-1-methyl-1H-indol-5-yl-oxy]pyridin-3-yl}-1-ethyl-3-(4-trifluoromethylphenyl)urea hydrobromide], for which the melting point is 224 to 230 °C.

For `Cn1c(C(=O)N2CCN(Cc3ccccn3)CC2)cc2ccc(Oc3ccc(NC(=O)c4ccc(C(F)(F)F)cc4)cn3)cc21.O=C(O)C(=O)O.O=C(O)C(=O)O` [Example 236, N-{6-[1-Methyl-2-(4-pyridin-2-ylmethylpiperazine-1-carbonyl)-1H-indol-6-yloxy]pyridin-3-yl}-4-trifluoromethylbenzamide dioxalate], the melting point was 176 to 178 °C.

Turning to `CC(C)Oc1ccc(CN2CCN(C(=O)c3cc4ccc(Oc5ncc(N(C)S(=O)(=O)c6ccc(C(F)(F)F)cc6)cn5)cc4n3C)CC2)cc1` [Example 42, N-(2-{2-[4-(4-Isopropoxybenzyl)piperazine-1-carbonyl]-1-methyl-1H-indol-6-yloxy}pyrimidin-5-yl)-N-methyl-4-trifluoromethyl-benzenesulfonamide], the melting point was in the range of 186.6 to 187.3 °C.

In turn, `CC(C)Oc1ccc(CN2CCN(C(=O)c3cc4ccc(Oc5ccc(N(C)C(=O)c6ccc(C(F)(F)F)cc6)cn5)cc4n3C)CC2)cn1.O=C(O)/C=C\C(=O)O` [Example 444, N-(6-{2-[4-(6-Isopropoxypyridin-3-ylmethyl)piperazine-1-carbonyl]-1-methyl-1H-indol-6-yloxy}pyridin-3-yl)-N-methyl-4-tri-fluoromethylbenzamide maleate] gave a melting point of 156.8 to 157.4 °C.

`CCOc1cccc(CN2CCN(C(=O)c3cc4cc(Oc5ccc(N(C)C(=O)c6ccc(Cl)c(Cl)c6)cn5)ccc4n3C)CC2)c1.O=C(O)/C=C\C(=O)O` [Example 374, 3,4-Dichloro-N-(6-{2-[4-(3-ethoxybenzyl)piperazine-1-carbonyl]-1-methyl-1H-indol-5-yloxy}pyridin-3-yl)-N-methylbenzamide maleate] showed a melting point of 99 to 100 °C.

`Br.CCOc1ccc(CN2CCN(C(=O)c3cc4cc(Oc5cc(C)c(N(C)C(=O)c6ccc(C(F)(F)F)cc6)cn5)ccc4n3C)CC2)cc1` [Example 365, N-(6-{2-[4-(4-Ethoxybenzyl)piperazine-1-carbonyl]-1-methyl-1H-indol-5-yloxy}-4-methylpyridin-3-yl)-N-methyl-4-trifluoromethyl-benzamide hydrobromide]: the melting point was 163 to 166 °C.

As to `Br.CCCOc1ccc(CN2CCN(C(=O)c3cc4ccc(Oc5ccc(N(C)C(=O)c6ccc(C(F)(F)F)cc6Cl)cn5)cc4n3C)CC2)cc1` [Example 450, 2-Chloro-N-methyl-N-(6-{1-methyl-2-[4-(4-propoxybenzyl)-piperazine-1-carbonyl]-1H-indol-6-yloxy}pyridin-3-yl)-4-tri-fluoromethylbenzamide hydrobromide], the melting point was 238.6 to 240.1 °C.

`Cn1c(C(=O)N2CCN(C3CCOCC3)CC2)cc2cc(Oc3ccc(NS(=O)(=O)c4ccc(Cl)c(Cl)c4)cn3)ccc21` [Example 331, 3,4-Dichloro-N-(6-{1-methyl-2-[4-(tetrahydropyran-4-yl)-piperazine-1-carbonyl]-1H-indol-5-yloxy}pyridin-3-yl)-benzenesulfonamide]: the melting point was 208 to 210 °C.

In turn, `Cn1c(C(=O)N2CCN(Cc3ccc(C#N)cc3)CC2)cc2cccc(Oc3ccc(NC(=O)c4ccc(C(F)(F)F)cc4)cn3)c21` [Example 245, N-(6-{2-[4-(4-Cyanobenzyl)piperazine-1-carbonyl]-1-methyl-1H-indol-7-yloxy}pyridin-3-yl)-4-trifluoromethylbenzamide] showed a melting point of 228 to 229 °C.

`Br.CC(C)Oc1ccc(CN2CCN(C(=O)c3cc4ccc(Oc5ccc(NC(=O)c6ccc(Cl)c(Cl)c6)cn5)cc4n3C)CC2)cn1` [Example 466, 3,4-Dichloro-N-(6-{2-[4-(6-isopropoxypyridin-3-ylmethyl)-piperazine-1-carbonyl]-1-methyl-1H-indol-6-yloxy}pyridin-3-yl)-benzamide hydrobromide] had a melting point of 236.9 to 240.4 °C.

As to `CCCOc1ccc(CN2CCN(C(=O)c3cc4cc(Oc5ccc(N(C)C(=O)c6ccc(Cl)c(Cl)c6)cn5)ccc4n3C)CC2)cc1.O=C(O)/C=C\C(=O)O` [Example 370, 3,4-Dichloro-N-methyl-N-(6-{1-methyl-2-[4-(4-propoxybenzyl)-piperazine-1-carbonyl]-1H-indol-5-yloxy}pyridin-3-yl)benzamide maleate], the melting point lay in the range of 163 to 164 °C.

In turn, `C[C@H]1CN(Cc2ccccn2)CCN1C(=O)c1cc2cc(Oc3ccc(NC(=O)c4ccc(C(F)(F)F)cc4)cn3)ccc2n1C.O=C(O)C(=O)O.O=C(O)C(=O)O` [Example 397, N-{6-[1-Methyl-2-((S)-2-methyl-4-pyridin-2-ylmethylpiperazine-1-carbonyl)-1H-indol-5-yloxy]pyridin-3-yl}-4-trifluoromethyl-benzamide dioxalate] registered a melting point of 126 to 127 °C.

The compound `Br.Cn1c(C(=O)N2CCN(Cc3ccc4c(c3)OCO4)CC2)cc2cc(Oc3ccc(NCc4ccc(Cl)c(Cl)c4)cn3)ccc21` [Example 333, (4-Benzo[1,3]dioxol-5-ylmethylpiperazin-1-yl)(5-{5-[(3,4-di-chlorophenyl)methylamino]pyridin-2-yloxy}-1-methyl-1H-indol-2-yl)methanone hydrobromide] returned a melting point of 205 to 214 °C.

As to `Cl.Cn1c(C(=O)N2CCN(Cc3ccc(OCC(F)(F)F)cc3)CC2)cc2ccc(Oc3ccc(NC(=O)c4ccc(C(F)(F)F)nc4)cn3)cc21`, the melting point was determined as 195.4 °C.

As for `Br.CCCOc1ccc(CN2CCN(C(=O)c3cc4ccc(Oc5ccc(NC(=O)c6ccc(C(F)(F)F)cc6)cn5)cc4n3C)CC2)cc1` [Example 475, N-(6-{1-Methyl-2-[4-(4-propoxybenzyl)piperazine-1-carbonyl]-1H-indol-6-yloxy}pyridin-3-yl)-4-trifluoromethylbenzamide hydrobromide], the melting point fell in the range of 254 to 255.7 °C.

On to `Br.Cn1c(C(=O)N2CCN(Cc3ccc(OCC(F)(F)F)cc3)CC2)cc2cc(Oc3ccc(NC(=O)c4ccc(C(F)(F)F)cc4O)cn3)ccc21` [Example 267, 2-Hydroxy-N-[6-(1-methyl-2-{4-[4-(2,2,2-trifluoroethoxy)benzyl]-piperazine-1-carbonyl}-1H-indol-5-yloxy)pyridin-3-yl]-4-tri-fluoromethylbenzamide hydrobromide], for which the melting point is 214 to 219 °C (dec.).

Turning to `CS(=O)(=O)O.CS(=O)(=O)O.Cn1c(C(=O)N2CCN(Cc3ccccn3)CC2)cc2cc(Oc3ccc(NC(=O)c4ccc(C(F)(F)F)cc4)cn3)ccc21` [Example 560, N-{6-[1-Methyl-2-(4-pyridin-2-ylmethylpiperazine-1-carbonyl)-1H-indol-5-yloxy]pyridin-3-yl}-4-trifluoromethylbenzamide bismethanesulfonate], the melting point was in the range of 137 to 139 °C.

In turn, `Br.Cn1c(C(=O)N2CCN(Cc3ccc(O)cc3)CC2)cc2ccc(Oc3ccc(NC(=O)c4ccc(C(F)(F)F)cc4)cn3)cc21` [Example 459, N-(6-{2-[4-(4-Hydroxybenzyl)piperazine-1-carbonyl]-1-methyl-1H-indol-6-yloxy}pyridin-3-yl)-4-trifluoromethylbenzamide hydrobromide] displayed a melting point of 241.4 to 242.7 °C.

`CC(C)Oc1ccc(CN2CCN(C(=O)c3cc4cc(Oc5ccc(N(C)C(=O)c6ccc(C(F)(F)F)cc6)cn5)ccc4n3C)CC2)cc1.O=C(O)/C=C\C(=O)O` [Example 410, N-(6-{2-[4-(4-Isopropoxybenzyl)piperazine-1-carbonyl]-1-methyl-1H-indol-5-yloxy}pyridin-3-yl)-N-methyl-4-trifluoromethyl-benzamide maleate] showed a melting point of 140 to 142 °C.

As to `Br.COc1ccc(CN2CCN(C(=O)c3cc4cc(Oc5ccc(NC(=O)c6ccc(OC(F)(F)F)cc6)cn5)ccc4n3C)CC2)cc1` [Example 17, N-(6-{2-[4-(4-Methoxybenzyl)piperazine-1-carbonyl]-1-methyl-1H-indol-5-yloxy}pyridin-3-yl)-4-trifluoromethoxybenzamide hydrobromide], the melting point lay within 226 to 227 °C.

Compound `Br.Cn1c(C(=O)N2CCN(Cc3ccc(OCC(F)(F)F)cc3)CC2)cc2cc(Oc3ccc(NC(=O)c4ccc(C(F)(F)F)cc4)cn3)ccc21` [Example 463, N-[6-(1-Methyl-2-{4-[4-(2,2,2-trifluoroethoxy)benzyl]piperazine-1-carbonyl}-1H-indol-5-yloxy)pyridin-3-yl]-4-trifluoromethyl-benzamide hydrobromide] returned a melting point of 236.8 to 237.5 °C.

`Cl.Cn1c(C(=O)N2CCN(Cc3ccc(OC(F)F)cc3)CC2)cc2ccc(Oc3ccc(NC(=O)c4ccc(OC(F)(F)F)cc4)cn3)cc21` yielded a melting point of 256.2 to 256.5 °C.

These data come from patent publication US8551999B2, “Heterocyclic compound and pharmaceutical composition thereof” (Otsuka Pharmaceutical Co., Ltd., priority 2007, dated 2013).
